Experimental findings from patent publication US10662204B2 (PFIZER INC., priority 2018, dated 2020) are described below.

Molecules are shown by their SMILES.

For assay [1], the target named is T1, GDP-loaded KRAS (1-169) G12C, C51S, C80L, C118S (Homo sapiens, UniProt P01116, C118S/C51S/C80L/G12C).
T1 construct: GDP-loaded KRAS (1-169) G12C, C51S, C80L, C118S
In words: Mass Spectrometry Reactivity Assay (MSRA): covalent adduct of compound and KRAS G12C, Percent Modification. The note with it: 5.0 μM compound, 0.017 hr. It is filed as binding. The protocol:
Mass Spectrometry Reactivity Assay (MSRA)
Compounds presented in the present invention covalently bind to KRAS G12C using MSRA to detect a covalent adduct of the exemplary compound and KRAS G12C.
GDP-loaded KRAS (1-169) G12C, C51S, C80L, C118S were diluted in the protein assay buffer 25 mM Hepes pH7.5, 200 mM NaCl, 5% glycerol to concentration of 5 μM and 20 μl of protein was transferred into 96-well plate. Initial compound stocks were generated at concentrations 100-fold higher that their desired assay concentrations. See K-Ras(G12C) inhibitors allosterically control GTP affinity and effector interactions; Ostrem J M, Peters U, Sos M L, Wells J A, Shokat K M; Nature. 2013, Nov. 28; 503(7477):548-51.
Exemplary compounds dissolved in DMSO were diluted 100-fold into solution containing 20 μl of 5 μM KRAS protein in the 96-well plate to initiate the reaction. Mosquito (TPP Lab tech) liquid handling robot was used to add compounds to protein solution. Typical final concentration of the compounds was 5 μM or 10 μM. The plates were placed on a shaker for 1 min at RT, sealed and incubated at room temperature for specified time period. 5 μl of reaction mix was added to 10 μl of 0.2% formic acid stop solution and mixed well. Typical end points were 1, 15, 30, and 60 min.
Data were collected using Waters Acquity H-class UPLC system/Xevo G2-XS TOF mass spectrometer. The protein was injected in their liquid phase onto a Bruker Microtrap protein column TR1/15109/03. The following buffers were used to set LC gradient: Buffer A: 0.2% formic acid H2O; B: 0.2% formic acid CAN. The protein was eluted from the column using the following LC Gradient: 0-0.4 min, 10% B to 30% B; 0.4 min-2.4 min, to 90% B, 2.5 min, 10% B, 3 min, 10% B. Initial data analysis was performed using MaxEnt software right after data acquisition.
The standard auto processing function was used to define percentage of unmodified and modified KRAS protein using MexEnt software right after data acquisition. The highest peak was defined as 100% while smaller peak as assigned the number defined by autoprocessing function. The percent of modification corresponding to modified with exemplary compound and unmodified KRAS GDP-loaded KRAS (1-169) G12C, C51S, C80L, C118S were exported to Xcel data analysis software.
The percent of modified protein at the defined concentration of exemplary compound was calculated using the following formula: % mod=Num of modified peak/Sum of modified+unmodified. The resultant value defined as Percent Modification (PM) and an increase in PM reflects that the specific compound is better than other compounds at specified compound concentration at a given time point.

For assay [2], the target named is KRAS G12C (Homo sapiens, UniProt P01116, G12C). In words: Cell Activity Assay: accumulation of GDP-bound KRAS G12C in MIAPaCa-2 cells (Raf-1 RBD capture, MSD readout). Also noted: endogenous in cells; host or cells: MIAPaCa-2. The note with it: 6 hours, assay limit is 30.00. The class given is cell-based. The protocol: Compounds presented in the present invention lead to the accumulation of the GDP bound Ras upon treatment of human cancer cell line.
The accumulation of the GDP-bound KRAS G12C in cellular environment was measured based on the principle that KRAS G12C only binds to its downstream kinase; Raf-1 (MAP Kinase Kinase Kinase), when in its active-GTP bound state. In this state, Ras binded to a domain of Raf-1 kinase referred to as the Ras Binding Domain (RBD).
MIAPaCa-2 cells were grown in RPMI 1640 medium (Gibco 11875) supplemented with 10% fetal bovine serum and 1% penicillin/streptomycin. Cells were seeded in 96-well tissue culture plates at a density of 30,000 cells/well and allowed to attach for 16-24 hours. Test compounds were prepared as a 10 mM stock in DMSO and serially diluted in 100% DMSO using a 3-fold dilution scheme. An intermediate 5× concentrated plate in complete growth medium was made and 25 μl/well was added to the 100 μl of cells for a final concentration of 0.3% DMSO. Each concentration of exemplary compound was tested in duplicate. The negative control wells were cells with control inhibitor at 10 μM, and the positive control wells were cells without drugs, DMSO only. Plates were incubated for 6 hours at 37° C., 5% CO2. Following treatment, cells were washed 3× with ice-cold PBS and 115 μl/well ice-cold 1× Assay/Lysis. Buffer with protease inhibitors was added (25 mM HEPES, pH 7.5, 150 mM NaCl, 1% NP-40, 10 mM MgCl2, 1 mM EDTA, 2% Glycerol). Following lysis samples were frozen at −80° C.
Raf-1 RBD (LJIC-1988A1) was diluted to 100 ng/well in PBS and 5 μl/well was spot coated onto MSD high bind SECTOR plates (L15XB). Plates were incubated at room temperature for 1 hour on an orbital shaker. Plates were washed with PBS/0.05% Tween-20 and 50 μl/well of thawed lysate samples were added, followed by 50 μl of 1% MSD Blocker A in PBS/0.05 Tween-20 (R93BA). Plates were incubated for 1 hour on an orbital shaker and washed with PBS/0.05% Tween-20. 25 μl/well of Anti-pan-Ras Antibody (Cell Biolabs 244003) diluted 1:3000 was added in 1% MSD Blocker A solution and plates were incubated for 1 hour on an orbital shaker and washed with PBS/0.05% Tween-20. SULFO-TAG goat anti-mouse secondary antibody (MSD R32AC) was diluted 1:500 in MSD Blocker A solution and added at 25 μL/well. Plates were incubated for 1 hour on an orbital shaker and washed with PBS/0.05% Tween-20. 150 μl/well of Read Buffer T (MSD R92TC) diluted 1:3 in H2O was added and plates were read on a Meso Scale Discovery Sector Imager S600.
KRAS signal was normalized to maximum inhibition and DMSO control values, and IC50 values were generated using a 4 parameter fit of the dose response curve. The decrease in IC50 reflects that the exemplary compound lead to a higher level of accumulation of GDP-bound KRAS G12C than another exemplary compounds at specific timepoint of treatment of cancer cell line.

In general, IC50 refers to the concentration needed to halve the response being measured. A lower IC50 goes with greater potency in that assay. Consider `C=CC(=O)N1CCN(c2nc(O[C@@H]3CN(C)C[C@H]3CC)nc3c(Oc4c(Cl)c(F)cc5[nH]ncc45)nc(Cl)cc23)CC1` (racemic) [Example 28G, rac-1-[4-(6-chloro-8-[(5-chloro-6-fluoro-1H-indazol-4-yl)oxy]-2-{[(3S,4R)-4-ethyl-1-methylpyrrolidin-3-yl]oxy}pyrido[3,4-d]pyrimidin-4-yl)piperazin-1-yl]prop-2-en-1-one], for which the “MSRA (% modification) 5.0 μM 0.017 hr” value in assay [1] came to 60%. Further, 0.037 µM corresponded to half-maximal inhibition in assay [2] (IC50).
With `C=CC(=O)N1CCN(c2nc(O[C@@H]3COC[C@H]3N(C)C)nc3c(Oc4c(Cl)c(F)cc5[nH]ncc45)nc(Cl)cc23)CC1` (racemic) [Example 30G, rac-1-[4-(6-chloro-8-[(5-chloro-6-fluoro-1H-indazol-4-yl)oxy]-2-{[(3S,4R)-4-(dimethylamino)oxolan-3-yl]oxy}pyrido[3,4-d]pyrimidin-4-yl)piperazin-1-yl]prop-2-en-1-one], the “MSRA (% modification) 5.0 μM 0.017 hr” value in assay [1] was 53%. Also, in assay [2], half-maximal inhibition (IC50) was put at 0.026 µM.
For `C=CC(=O)N1CCN(c2nc(O[C@@H]3CN(C)C[C@@H]3C)nc3c(Oc4c(Cl)c(F)cc5[nH]ncc45)nc(Cl)cc23)CC1` (racemic) [Example 31G, rac-1-[4-(6-chloro-8-[(5-chloro-6-fluoro-1H-indazol-4-yl)oxy]-2-{[(3R,4R)-1,4-dimethylpyrrolidin-3-yl]oxy}pyrido[3,4-d]pyrimidin-4-yl)piperazin-1-yl]prop-2-en-1-one], the “MSRA (% modification) 5.0 μM 0.017 hr” value in assay [1] was determined as 26%. Further, inhibition in assay [2] was half-maximal at 0.135 µM (IC50).
The matching figures for `C=CC(=O)N1CCN(c2nc(O[C@@H]3CN(C)C[C@H]3C)nc3c(Oc4c(Cl)c(F)cc5[nH]ncc45)nc(Cl)cc23)CC1` (racemic) [Example 32G, rac-1-[4-(6-chloro-8-[(5-chloro-6-fluoro-1H-indazol-4-yl)oxy]-2-{[(3S,4R)-1,4-dimethylpyrrolidin-3-yl]oxy}pyrido[3,4-d]pyrimidin-4-yl)piperazin-1-yl]prop-2-en-1-one]: 44% and 0.016 µM.
The matching figures for `C=CC(=O)N1CCN(c2nc(O[C@@H]3CN(C)C[C@H]3OCC(F)F)nc3c(Oc4c(Cl)c(F)cc5[nH]ncc45)nccc23)CC1` (racemic) [Example 32I, rac-1-[4-(8-[(5-chloro-6-fluoro-1H-indazol-4-yl)oxy]-2-{[(3R,4R)-4-(2,2-difluoro-ethoxy)-1-methyl-pyrrolidin-3-yl]oxy}pyrido [3,4-d]pyrimidin-4-yl)piperazin-1-yl]prop-2-en-1-one]: 19% and 0.168 µM.
With `C=CC(=O)N1CCN(c2nc(O[C@@H]3CCN(CCOC)C[C@H]3C)nc3c(Oc4c(Cl)c(F)cc5[nH]ncc45)nc(Cl)cc23)CC1` (racemic) [Example 33G, rac-1-[4-(6-chloro-8-[(5-chloro-6-fluoro-1H-indazol-4-yl)oxy]-2-{[(3R,4R)-1-(2-methoxyethyl)-3-methylpiperidin-4-yl]oxy}pyrido[3,4-d]pyrimidin-4-yl)piperazin-1-yl]prop-2-en-1-one], the “MSRA (% modification) 5.0 μM 0.017 hr” value in assay [1] is on record as 51%. This compound displayed an IC50 in assay [2] of 0.052 µM.
The matching figures for `C=CC(=O)N1CCN(c2nc(O[C@@H]3CCN(C)C[C@H]3C)nc3c(Oc4c(Cl)c(F)cc5[nH]ncc45)nc(Cl)cc23)CC1` (racemic) [Example 34G, rac-1-[4-(6-chloro-8-[(5-chloro-6-fluoro-1H-indazol-4-yl)oxy]-2-{[(3R,4R)-1,3-dimethylpiperidin-4-yl]oxy}pyrido[3,4-d]pyrimidin-4-yl)piperazin-1-yl]prop-2-en-1-one]: 47% and 0.063 µM.
For `C=CC(=O)N1CCN(c2nc(O[C@@H]3CN(C)C[C@H]3C(F)F)nc3c(Oc4c(Cl)c(F)cc5[nH]ncc45)nccc23)CC1` (racemic) [Example 36I, rac-1-[4-(8-[(5-chloro-6-fluoro-1H-indazol-4-yl)oxy]-2-{[(3S,4R)-4-(difluoro-methyl)-1-methyl-pyrrolidin-3-yl]oxy}pyrido [3,4-d]pyrimidin-4-yl)piperazin-1-yl]prop-2-en-1-one], in assay [1], the “MSRA (% modification) 5.0 μM 0.017 hr” value was found to be 57%. This compound also had an IC50 in assay [2] of 0.029 µM.
In the case of `C=CC(=O)N1CCN(c2nc(O[C@@H]3CN(C)C[C@H]3C3CC3)nc3c(Oc4c(Cl)c(F)cc5[nH]ncc45)nccc23)CC1` (racemic) [Example 39I, rac-1-[4-(8-[(5-chloro-6-fluoro-1H-indazol-4-yl)oxy]-2-{[(3S,4R)-4-cyclo-propyl-1-methyl-pyrrolidin-3-yl]oxy}pyrido [3,4-d]pyrimidin-4-yl)piperazin-1-yl]prop-2-en-1-one], the “MSRA (% modification) 5.0 μM 0.017 hr” value in assay [1] came out at 31%. The compound also displayed a 50% inhibitory concentration (IC50) in assay [2] of 0.083 µM.
Consider `C=CC(=O)N1CCN(c2nc(O[C@@H]3CN(C)C[C@H]3C)nc3c(Oc4c(Cl)c(Cl)cc5[nH]ncc45)nccc23)CC1` (racemic) [Example 51I, rac-1-[4-(8-[(5,6-dichloro-1H-indazol-4-yl)oxy]-2-{[(3S,4R)-1,4-dimethyl-pyrrolidin-3-yl]oxy}pyrido [3,4-d]pyrimidin-4-yl)piperazin-1-yl]prop-2-en-1-one], for which, in assay [1], the “MSRA (% modification) 5.0 μM 0.017 hr” value amounted to 39%. Besides, the IC50 in assay [2] was 0.031 µM.
The matching figures for `C=CC(=O)N1CCN(c2nc(O[C@@H]3CN(C)CC[C@H]3C)nc3c(Oc4c(Cl)c(F)cc5[nH]ncc45)nccc23)CC1` (racemic) [Example 53I, rac-1-[4-(8-[(5-chloro-6-fluoro-1H-indazol-4-yl)oxy]-2-{[(3S,4R)-1,4-dimethyl-piperidin-3-yl]oxy}pyrido [3,4-d]pyrimidin-4-yl)piperazin-1-yl]prop-2-en-1-one]: 15% and 0.059 µM.
`C=CC(=O)N1CCN(c2nc(O[C@@H]3CN(C)C[C@H]3C(F)F)nc3c(Oc4c(Cl)c(F)cc5[nH]ncc45)nccc23)CC1` (single isomer, unassigned) [Example 58I]: the “MSRA (% modification) 5.0 μM 0.017 hr” value in assay [1] worked out at 58%. In assay [2], this compound showed an IC50 of 0.006 µM.
